Read-outs that look alike come from different tables or passages of the source.

What all share (assay): Glasshouse assay for herbicidal activity (pre- and post-emergence), percentage phytotoxicity
Type in all cases: in vivo

Test [1] relates to Alopecurus myosuroides (ALOMY). As to conditions: Alopecurus myosuroides. An outline of the steps:
(§1)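 Damage was rated visually as percent phytotoxicity, 100% meaning total kill, 20 days after pre-emergence application (made one day post-sowing) or 15 days after post-emergence application (made about 12 days post-sowing). Plants were grown under 16 h light, 65% humidity, warm species 24/18° C, cool 20/16° C.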

Test [2] relates to Avena fatua (AVEFA). As to conditions: Avena fatua. An outline of the steps: as §1
Test [3] has as its system Echinochloa crus-galli (ECHCG). The following applies: Echinochloa crus-galli. The procedure, abridged: as §1
The subject of test [4] is Lolium perenne (LOLPE). The following applies: Lolium perenne. The procedure, abridged:
as §1

Where [5] appears, read: post-emergence, 360 h, 250 g/ha, post-emergence, 15 DAA, visual assessment (100%=total damage, 0%=no damage), read-out: Post-emergence herbicidal activity (percentage phytotoxicity) ALOMY POST.
The mark [6] stands for this setting: pre-emergence, 480 h, 250 g/ha, pre-emergence, 20 DAA, visual assessment (100%=total damage, 0%=no damage), read-out: Pre-emergence herbicidal activity (percentage phytotoxicity) ALOMY PRE.
The mark [7] stands for this setting: post-emergence, 360 h, 250 g/ha, post-emergence, 15 DAA, visual assessment (100%=total damage, 0%=no damage), read-out: Post-emergence herbicidal activity (percentage phytotoxicity) AVEFA POST.
[8] abbreviates: pre-emergence, 480 h, 250 g/ha, pre-emergence, 20 DAA, visual assessment (100%=total damage, 0%=no damage), read-out: Pre-emergence herbicidal activity (percentage phytotoxicity) AVEFA PRE.
Setting [9] is: post-emergence, 360 h, 250 g/ha, post-emergence, 15 DAA, visual assessment (100%=total damage, 0%=no damage), read-out: Post-emergence herbicidal activity (percentage phytotoxicity) ECHCG POST.
The mark [10] stands for this setting: pre-emergence, 480 h, 250 g/ha, pre-emergence, 20 DAA, visual assessment (100%=total damage, 0%=no damage), read-out: Pre-emergence herbicidal activity (percentage phytotoxicity) ECHCG PRE.
The mark [11] stands for this setting: post-emergence, 360 h, 250 g/ha, post-emergence, 15 DAA, visual assessment (100%=total damage, 0%=no damage), read-out: Post-emergence herbicidal activity (percentage phytotoxicity) LOLPE POST.
The mark [12] stands for this setting: pre-emergence, 480 h, 250 g/ha, pre-emergence, 20 DAA, visual assessment (100%=total damage, 0%=no damage), read-out: Pre-emergence herbicidal activity (percentage phytotoxicity) LOLPE PRE.
The mark [13] stands for this setting: post-emergence, 360 h, POST-emergence, rate 250 g/ha, visual score 15 DAA (100%=total damage, 0%=no damage), read-out: Post-emergence herbicidal activity (percentage phytotoxicity) ALOMY POST.
Where [14] appears, read: pre-emergence, 480 h, PRE-emergence, rate 250 g/ha, visual score 20 DAA (100%=total damage, 0%=no damage), read-out: Pre-emergence herbicidal activity (percentage phytotoxicity) ALOMY PRE.
Setting [15] is: post-emergence, 360 h, POST-emergence, rate 250 g/ha, visual score 15 DAA (100%=total damage, 0%=no damage), read-out: Post-emergence herbicidal activity (percentage phytotoxicity) AVEFA POST.
The mark [16] stands for this setting: pre-emergence, 480 h, PRE-emergence, rate 250 g/ha, visual score 20 DAA (100%=total damage, 0%=no damage), read-out: Pre-emergence herbicidal activity (percentage phytotoxicity) AVEFA PRE.
The mark [17] stands for this setting: post-emergence, 360 h, POST-emergence, rate 250 g/ha, visual score 15 DAA (100%=total damage, 0%=no damage), read-out: Post-emergence herbicidal activity (percentage phytotoxicity) ECHCG POST.
Where [18] appears, read: pre-emergence, 480 h, PRE-emergence, rate 250 g/ha, visual score 20 DAA (100%=total damage, 0%=no damage), read-out: Pre-emergence herbicidal activity (percentage phytotoxicity) ECHCG PRE.
Where [19] appears, read: post-emergence, 360 h, POST-emergence, rate 250 g/ha, visual score 15 DAA (100%=total damage, 0%=no damage), read-out: Post-emergence herbicidal activity (percentage phytotoxicity) LOLPE POST.
Where [20] appears, read: pre-emergence, 480 h, PRE-emergence, rate 250 g/ha, visual score 20 DAA (100%=total damage, 0%=no damage), read-out: Pre-emergence herbicidal activity (percentage phytotoxicity) LOLPE PRE.

With `C/C=C/c1cc(C)c(C2C(=O)CC(CC(=O)NC(C)(C)C)C2=O)c(CC)c1` (stereo not shown) [Compound B136], the pest or weed control at 16 g/ha was determined as 60% in test [1] (post-emergence, 360 h, post-emergence, 15 DAA, read-out: Post-emergence herbicidal activity (percentage phytotoxicity) ALOMY POST); 90% in test [1] (pre-emergence, 480 h, pre-emergence, 20 DAA, read-out: Pre-emergence herbicidal activity (percentage phytotoxicity) ALOMY PRE); 100% in test [2] (post-emergence, 360 h, post-emergence, 15 DAA, read-out: Post-emergence herbicidal activity (percentage phytotoxicity) AVEFA POST); 100% in test [2] (pre-emergence, 480 h, pre-emergence, 20 DAA, read-out: Pre-emergence herbicidal activity (percentage phytotoxicity) AVEFA PRE); 90% in test [3] (post-emergence, 360 h, post-emergence, 15 DAA, read-out: Post-emergence herbicidal activity (percentage phytotoxicity) ECHCG POST); 100% in test [3] (pre-emergence, 480 h, pre-emergence, 20 DAA, read-out: Pre-emergence herbicidal activity (percentage phytotoxicity) ECHCG PRE). Moreover, the pest or weed control at 16 g/ha in test [4] (post-emergence, 360 h, post-emergence, 15 DAA, read-out: Post-emergence herbicidal activity (percentage phytotoxicity) LOLPE POST) was 100%; in test [4] (pre-emergence, 480 h, pre-emergence, 20 DAA, read-out: Pre-emergence herbicidal activity (percentage phytotoxicity) LOLPE PRE), 90%.

As to `Cc1cc(C)c(C2C(=O)CC(CC(=O)NCc3ccccc3Cl)C2=O)c(C)c1` (stereo not shown) [Compound B17], the pest or weed control at 250 g/ha in test [1] (setting [5]) came out at 40%; in test [1] (setting [6]), 20%; in test [2] (setting [7]), 50%; in test [2] (setting [8]), 0%; in test [3] (setting [9]) it was 70%; in test [3] (setting [10]), 90%. The pest or weed control at 250 g/ha in test [4] (setting [11]) was 70%; in test [4] (setting [12]), 90%.

For `CCc1cc(C)cc(C)c1C1C(=O)CC(CC(=O)NCc2cccc(F)c2)C1=O` (stereo not shown) [Compound B252], the pest or weed control at 250 g/ha in test [1] (setting [13]) is 100%; in test [1] (setting [14]), 100%; in test [2] (setting [15]) it was 90%; in test [2] (setting [16]), 70%; in test [3] (setting [17]), 100%; in test [3] (setting [18]) it was 100%. Also, the pest or weed control at 250 g/ha in test [4] (setting [19]) and in test [4] (setting [20]) was 100% throughout.

With `C=CC(C)NC(=O)CC1CC(=O)C(c2c(C)cc(-c3ncc(Cl)cc3F)cc2C)C1=O` (stereo not shown) [Compound B300], the pest or weed control at 250 g/ha in test [1] (setting [13]), in test [1] (setting [14]), in test [2] (setting [15]), in test [2] (setting [16]), in test [3] (setting [17]) and in test [3] (setting [18]) was 100% in each case. The pest or weed control at 250 g/ha in test [4] (setting [19]) and in test [4] (setting [20]) was 100% throughout.

In the case of `Cc1cc(-c2ccc(C(F)(F)F)cn2)cc(C)c1C1C(=O)CC(CC(=O)NCc2cccc(C(F)(F)F)c2)C1=O` (stereo not shown) [Compound A153], the pest or weed control at 250 g/ha in test [1] (post-emergence, 360 h, Rate 250 g/ha, post-emergence, assessed visually 15 DAA, 100%=total damage, 0%=no damage, read-out: Post-emergence herbicidal activity (percentage phytotoxicity) ALOMY POST) was determined as 90%; in test [1] (pre-emergence, 480 h, Rate 250 g/ha, pre-emergence, assessed visually 20 DAA, 100%=total damage, 0%=no damage, read-out: Pre-emergence herbicidal activity (percentage phytotoxicity) ALOMY PRE) it was 30%; in test [2] (post-emergence, 360 h, Rate 250 g/ha, post-emergence, assessed visually 15 DAA, 100%=total damage, 0%=no damage, read-out: Post-emergence herbicidal activity (percentage phytotoxicity) AVEFA POST), 90%; in test [2] (pre-emergence, 480 h, Rate 250 g/ha, pre-emergence, assessed visually 20 DAA, 100%=total damage, 0%=no damage, read-out: Pre-emergence herbicidal activity (percentage phytotoxicity) AVEFA PRE) it was 70%; in test [3] (post-emergence, 360 h, Rate 250 g/ha, post-emergence, assessed visually 15 DAA, 100%=total damage, 0%=no damage, read-out: Post-emergence herbicidal activity (percentage phytotoxicity) ECHCG POST), 90%; in test [3] (pre-emergence, 480 h, Rate 250 g/ha, pre-emergence, assessed visually 20 DAA, 100%=total damage, 0%=no damage, read-out: Pre-emergence herbicidal activity (percentage phytotoxicity) ECHCG PRE) it was 90%. Besides, the pest or weed control at 250 g/ha turned out to be 70% in test [4] (post-emergence, 360 h, Rate 250 g/ha, post-emergence, assessed visually 15 DAA, 100%=total damage, 0%=no damage, read-out: Post-emergence herbicidal activity (percentage phytotoxicity) LOLPE POST) and 60% in test [4] (pre-emergence, 480 h, Rate 250 g/ha, pre-emergence, assessed visually 20 DAA, 100%=total damage, 0%=no damage, read-out: Pre-emergence herbicidal activity (percentage phytotoxicity) LOLPE PRE).

As to `C=CCC(C)(C)NC(=O)CC1CC(=O)C(c2c(C)cc(C)cc2C)C1=O` (stereo not shown) [Compound B27], the pest or weed control at 250 g/ha in test [1] (setting [5]) is 70%; in test [1] (setting [6]), 30%; in test [2] (setting [7]), 70%; in test [2] (setting [8]), 20%; in test [3] (setting [9]), 40%; in test [3] (setting [10]), 60%. For the same compound, the pest or weed control at 250 g/ha in test [4] (setting [11]) is 70%; in test [4] (setting [12]), 60%.

On to `Cc1cc(Br)cc(C)c1C1C(=O)CC(CC(=O)NCC2CC2(F)F)C1=O` (stereo not shown) [Compound B198], for which the pest or weed control at 250 g/ha in test [1] (setting [13]) came to 100%; in test [1] (setting [14]), 90%; in test [2] (setting [15]), 100%; in test [2] (setting [16]), 60%; in test [3] (setting [17]), 100%; in test [3] (setting [18]) it was 80%. Also, the values for the pest or weed control at 250 g/ha in test [4] (setting [19]) and in test [4] (setting [20]) were 100% and 70%, respectively.

Regarding `C/C=C/CNC(=O)CC1CC(=O)C(c2c(C)cc(-c3ncc(F)cc3F)cc2C)C1=O` (stereo not shown) [Compound B291], the pest or weed control at 250 g/ha in test [1] (setting [13]) turned out to be 90%; in test [1] (setting [14]), 100%; in test [2] (setting [15]), 100%; in test [2] (setting [16]), 90%; in test [3] (setting [17]) it was 100%; in test [3] (setting [18]), 100%. The pest or weed control at 250 g/ha in test [4] (setting [19]) turned out to be 90%; in test [4] (setting [20]) it was 100%.
